{"source": "patent US9283285B2", "about": "“Stable nanocomposition comprising docetaxel, process for the preparation thereof, its use and pharmaceutical compositions containing it” (BBS Nanotechnology Ltd., priority 2013, dated 2016)", "test_system": "HeLa cells, A2780 cells", "assay": "growth profile of cells by Real Time Analyser (xCELLigence RTCA, Roche)", "assay_type": "cell-based, human", "conditions": "HeLa and A2780 cells; same concentration of docetaxel; FIG. 2", "from_the_text": "FIG. 2A, 2B: HeLa and A2780 measured by Real Time Analyser (Roche). These figures show the growth profile of HeLa cells (A), and A2780 cells (B) after treating with docetaxel drug molecules (D), docetaxel-loaded nanoparticles (NP) and control cells (C). The injected volume contained the same concentration of docetaxel.\nThe xCELLigence RTCA HT Instrument from Roche Applied Science uses gold electrodes at the bottom surface of microplate wells as sensors to which an alternating current is applied. Cells that are grown as adherent monolayers on top of such electrodes influence the alternating current at the electrodes by changing the electrical resistance (impedance). The degree of this change is primarily determined by the number of cells, strength of the cell-cell interactions, interactions of the cells with the microelectrodes and by the overall morphology of the cells. The RTCA Software calculates the Cell Index (CI) as the relative change in measured impedance to represent cell status. The normalized cell index (NCI—plotted on y axis) is the relative cell impedance presented in the percentage of the value at the base-time. […] NCI increases by rise of cell-number or cell-size. For example NCI value in a culture treated with a proliferation inhibitory drug first can increase (because the cell-size grows) and after decreases (because the cell-number reduces)", "data": [{"smiles": "CC(=O)O[C@@]12CO[C@@H]1C[C@H](O)[C@@]1(C)C(=O)[C@H](O)C3=C(C)[C@@H](OC(=O)[C@H](O)[C@@H](NC(=O)OC(C)(C)C)c4ccccc4)C[C@@](O)([C@@H](OC(=O)c4ccccc4)[C@H]21)C3(C)C", "note": "[docetaxel, 1,7β,10β-trihydroxy-9-oxo-5β,20-epoxytax-11-ene-2α,4,13α-triyl 4-acetate 2-benzoate 13-{(2R,3S)-3-[(tert-butoxycarbonyl)amino]-2-hydroxy-3-phenylpropanoate}]", "values": [{"measurement": "effect on growth profile (normalized cell index) of tumor cell lines", "result": "similar"}]}]}
